We go through twelve compounds from US9339508B2, “Use of 3-methoxy-pregnenolone for the preparation of a drug for treating a traumatic brain injury” (MAPREG, priority 2003, dated 2016).

The subject of one data set is PC12 cells. Description: Neuritic growth / sprouting of PC12 cells in the presence of NGF. Format: cell-based, rat. The following applies: 30 μM; for Neuritic sprouting: 3 days, NGF 10 ng/ml, relative to PREG. As to the method:
Each molecule was tested in three culture wells. Measurements were taken for 200 cells per well using Scion Image software.
Neurite (neurite) length was measured for 200 cells per well after 2, 5, and 8 days of culture.
To rest the effect of selected molecules on neuritic growth, we first used the PC12 line, which has long been employed in neurobiological research. In the presence of NOF (nerve growth factor), the cells of this line, which arise from a rat pheochromocytoma, form neuritic extensions containing MAP-associated microtubules.
Stimulation of neuritic sprouting is conducted on PC12 cells differentiated in the presence of NGF (10 ng/ml) and the steroid being tested (30 μM) for 3 days. For each condition, the average length of the longest 200 neurites in each cell is measured simultaneously for 3 cultures.

In data set [1] the target is T1, human progesterone receptor (PR) (Homo sapiens, UniProt P06401).
T1 construct: expressed in transfected cells; host or cells: HEK293T cells
T1 sequence (P06401 1-933): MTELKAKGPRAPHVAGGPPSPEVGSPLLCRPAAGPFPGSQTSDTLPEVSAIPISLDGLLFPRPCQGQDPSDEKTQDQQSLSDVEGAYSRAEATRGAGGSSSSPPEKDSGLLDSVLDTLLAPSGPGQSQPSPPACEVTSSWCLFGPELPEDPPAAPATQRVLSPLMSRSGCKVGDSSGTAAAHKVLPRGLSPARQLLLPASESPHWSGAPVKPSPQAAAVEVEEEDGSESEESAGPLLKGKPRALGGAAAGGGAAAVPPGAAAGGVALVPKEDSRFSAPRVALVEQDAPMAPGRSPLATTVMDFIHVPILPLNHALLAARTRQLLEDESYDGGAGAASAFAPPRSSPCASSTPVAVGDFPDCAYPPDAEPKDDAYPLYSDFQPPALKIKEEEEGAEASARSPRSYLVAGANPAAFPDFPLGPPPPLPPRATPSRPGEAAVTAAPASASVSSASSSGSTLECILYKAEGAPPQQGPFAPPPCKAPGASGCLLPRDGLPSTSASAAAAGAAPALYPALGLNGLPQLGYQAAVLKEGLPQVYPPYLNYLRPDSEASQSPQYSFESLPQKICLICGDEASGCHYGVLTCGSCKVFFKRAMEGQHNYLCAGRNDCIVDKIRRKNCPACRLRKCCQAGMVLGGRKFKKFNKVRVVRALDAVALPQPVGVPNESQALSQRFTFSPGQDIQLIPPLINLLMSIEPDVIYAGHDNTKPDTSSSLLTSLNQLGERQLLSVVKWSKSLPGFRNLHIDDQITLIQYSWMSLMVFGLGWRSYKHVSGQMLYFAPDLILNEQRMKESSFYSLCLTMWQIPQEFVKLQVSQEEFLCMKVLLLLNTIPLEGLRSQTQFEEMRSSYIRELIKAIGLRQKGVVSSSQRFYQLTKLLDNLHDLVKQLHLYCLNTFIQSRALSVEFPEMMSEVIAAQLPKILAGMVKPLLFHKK
The data set is described as follows: Test of progesterone receptor antagonist activity (luciferase transactivation, HEK293T). The following applies: with progesterone 1 nM, increasing amounts. Format: cell-based. The protocol:
(§1) The main experimental setting used is the following: HEK293T cells were transiently transfected, using calcium phosphate precipitation technology, with expression receptors pSG5hPR (which permits expression of human progesterone receptor (PR)), pFC31-luc (contains the luciferase gene under the control of the MTV promoter, which is in turn activated by binding of a progestin to progesterone receptor) and pcbetagal (which permits expression of betagalactosidase), and cultured during 24 hours with increasing amounts of various compositions: • 1. […] Test of progesterone receptor […] activity: transfected cells were cultured with progesterone (1 nM) and increasing amounts of RU486 (a well-known progesterone receptor antagonist) or 3-methoxy-pregnenolone. • With this setting, a compound with progesterone receptor antagonist activity competes with progesterone for the occupation of progesterone receptor and results in a progressive loss of transactivation activity when the amount of this compound is increased compared to progesterone. Results

Data set [2] concerns α-tubulin in rat hippocampus. The data set is described as follows: Microtubule dynamics in rat hippocampus (Tyr/Glu-Tub ratio, Acet-Tub). Format: in vivo. Particulars: 10 mg/kg subcutaneously, single administration. An excerpt:
Mean±SEM, n=6 per group. **P<0.01, *P<0.5 vs sesame oil.
The effects produced by neurosteroids were compared with those produced by acute administration of the antidepressant drug fluoxetine (selective serotonin reuptake inhibitor SSRI).
Neurosteroids and 3-Methoxy-PREG (43B) Levels

The target of data set [3] is purified tubulin and MAP2 (Homo sapiens, UniProt P11137). The data set is described as follows: MAP2-induced polymerization of microtubules in vitro (optical density at 345 nm). Format: biochemical. The protocol: Purified MAP2 and tubulin are mixed in the presence of GTP at 4° C. in a spectrophotometer cuvette. Polymerization is induced by heating at 37° C. and is followed by the increase in optical density (OD) which indicates the quantity of polymers formed.
This in vitro test measures the effect of molecules on the MAP2-induced polymerization of microtubules. This polymerization occurs when MAP2 proteins and tubulin are mixed at adequate concentrations in the presence of GTP. It is accompanied by an increase in optical density measured at 345 nm for 15 to 30 minutes with a UNICON spectrophotometer thermostated at 37° C. (FIG. 1).
Activity is measured by the increase in optical density at 345 nm of a mixture of purified tubulin and MAP2, incubated at 37° C. in the presence of GTP.

Data set [4] concerns the target T1, human progesterone receptor (PR). The data set is described as follows: Test of progesterone receptor agonist activity (luciferase transactivation, HEK293T). It is filed as cell-based. Particulars: 24 hours, increasing amounts. As to the method:
as §1

For the next data set, the system named is PC12 cell line. Description: Cellular toxicity on the PC12 cell line. The following applies: concentrations as high as solubility limits. It is filed as cell-based, rat. As to the method: Cellular toxicity tests are carried out routinely on the PC12 cell line.
The subject of data set [5] is transgenic mice expressing the longest isoform of human tau protein. The data set is described as follows: RotaRod motor incoordination in transgenic tau mice. It is filed as in vivo, mouse. Particulars: subcutaneous implant releasing 0.38 mg per day for 90 days. An excerpt:
FIG. 8: Effect of molecule 43B on the motor incoordination of transgenic mice expressing the longest isoform of human tau protein in their neurons. […] The maximum speed of rotation of the RotaRod drum before the […] falls is a measurement of motor coordination (higher values correspond to a better treatment effect).
In order to evaluate the therapeutic potential of 433 to treat Alzheimer-type neurodegenerative diseases, a homozygous transgenic line of mice, such as described by Götz (EMBO J. 1995; 14(7):1304-13), can be used.
These mice express the longest human tau protein isoform. They present symptoms of neurological dysfunction expressed as muscular weakness and a reduction in motor coordination which correlate histologically with the appearance of abnormal neurites and hyperphosphorylated tau proteins as is seen in Alzheimer's disease. This pathological phosphorylation decreases the affinity of tau for microtubules and favors its aggregation.
A breeding program was undertaken at Bicêtre and genotyping made it possible to select mice homozygous for the transgene. […] The implants released 0.38 mg of steroid per day for 90 days. The progression of motor incoordination was followed by repeated RotaRod tests.

A further data set relates to Sprague Dawley rats. The data set is described as follows: Forced swimming test (FST). Format: in vivo, rat. The following applies: 10 mg/kg subcutaneously, 24, 5, 1 h before testing. The protocol:
Drugs were administered following the traditional dosing regimen used in the FST consisting of three injections: 24, 5, 1 h before testing.
The FET is currently the most widely used animal model for assessing depression related behavior and antidepressant drug activity in rodents (Cryan et al., Neubiorev. 2005). Rats are placed in an inescapable cylinder of water where they develop an immobile posture believed to reflect a “depressive”-like state. The Lime rats spend immobile is decreased by drugs exerting antidepressant activity.
Additional behaviors can be detected in the FST; namely, climbing and swimming. It has been shown that swimming behavior is sensitive to SSRIs such as fluoxetine whereas climbing is sensitive to norepinephrine re-uptake inhibitors (NRI) such as desipramine.

[6] abbreviates: 40 μM, compared to solvent alone.

purified tubulin and MAP2, sequence (P11137 whole entry): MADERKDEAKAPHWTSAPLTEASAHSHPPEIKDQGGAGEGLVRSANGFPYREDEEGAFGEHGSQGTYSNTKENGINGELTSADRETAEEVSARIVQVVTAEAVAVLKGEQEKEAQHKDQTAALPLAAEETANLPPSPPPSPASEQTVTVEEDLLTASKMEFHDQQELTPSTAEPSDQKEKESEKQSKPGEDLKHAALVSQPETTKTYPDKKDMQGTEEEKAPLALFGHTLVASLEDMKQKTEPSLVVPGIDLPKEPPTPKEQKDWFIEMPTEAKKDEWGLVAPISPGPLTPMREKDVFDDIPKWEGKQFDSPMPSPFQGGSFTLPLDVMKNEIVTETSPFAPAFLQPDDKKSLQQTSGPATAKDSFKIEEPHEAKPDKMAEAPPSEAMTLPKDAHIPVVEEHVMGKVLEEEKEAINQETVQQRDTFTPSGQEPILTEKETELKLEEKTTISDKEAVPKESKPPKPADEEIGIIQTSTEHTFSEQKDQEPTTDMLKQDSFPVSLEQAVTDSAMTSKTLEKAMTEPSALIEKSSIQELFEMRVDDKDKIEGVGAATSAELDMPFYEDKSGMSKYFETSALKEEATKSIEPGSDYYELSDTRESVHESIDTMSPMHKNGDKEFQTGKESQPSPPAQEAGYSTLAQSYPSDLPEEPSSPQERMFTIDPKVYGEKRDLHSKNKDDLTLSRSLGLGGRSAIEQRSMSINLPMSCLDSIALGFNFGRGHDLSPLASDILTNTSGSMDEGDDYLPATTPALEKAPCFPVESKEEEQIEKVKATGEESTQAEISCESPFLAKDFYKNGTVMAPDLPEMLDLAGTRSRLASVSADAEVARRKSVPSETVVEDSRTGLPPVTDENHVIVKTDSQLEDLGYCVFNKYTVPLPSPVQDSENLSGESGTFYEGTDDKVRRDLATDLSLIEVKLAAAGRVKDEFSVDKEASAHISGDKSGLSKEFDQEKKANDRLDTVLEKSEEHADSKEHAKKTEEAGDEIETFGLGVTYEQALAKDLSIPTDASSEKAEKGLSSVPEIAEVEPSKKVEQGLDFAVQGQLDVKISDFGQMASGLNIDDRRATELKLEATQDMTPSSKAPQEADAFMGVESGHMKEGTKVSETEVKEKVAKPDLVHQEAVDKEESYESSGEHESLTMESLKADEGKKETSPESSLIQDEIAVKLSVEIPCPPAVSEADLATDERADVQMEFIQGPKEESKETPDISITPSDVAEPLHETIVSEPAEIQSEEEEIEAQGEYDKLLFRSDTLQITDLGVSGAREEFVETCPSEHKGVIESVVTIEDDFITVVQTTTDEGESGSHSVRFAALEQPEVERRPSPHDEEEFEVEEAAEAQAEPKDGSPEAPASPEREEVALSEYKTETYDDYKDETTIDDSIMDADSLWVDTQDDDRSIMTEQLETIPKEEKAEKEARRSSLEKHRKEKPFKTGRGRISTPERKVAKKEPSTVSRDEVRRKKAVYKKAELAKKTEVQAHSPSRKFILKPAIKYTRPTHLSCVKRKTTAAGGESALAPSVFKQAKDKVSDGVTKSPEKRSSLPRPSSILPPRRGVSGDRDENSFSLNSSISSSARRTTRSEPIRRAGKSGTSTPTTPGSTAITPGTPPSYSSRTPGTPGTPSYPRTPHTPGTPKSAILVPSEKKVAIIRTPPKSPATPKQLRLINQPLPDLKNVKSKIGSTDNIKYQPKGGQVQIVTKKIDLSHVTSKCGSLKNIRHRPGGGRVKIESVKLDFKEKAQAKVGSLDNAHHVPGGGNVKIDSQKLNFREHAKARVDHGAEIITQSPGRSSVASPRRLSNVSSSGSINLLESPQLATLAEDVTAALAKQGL

Take `CO[C@H]1CC[C@@]2(C)C(=CC[C@@H]3[C@@H]2CC[C@@]2(C)[C@H]3CC[C@@]2(C(C)=O)C(Cl)Cl)C1` [3β-methoxy-pregna-5-ene-20-one-17α-dichloromethyl]: the Neuritic sprouting entry in the data set on PC12 cells is “+++”.
The same measure, in the same setting: the result for `CO[C@H]1CC[C@@]2(C)[C@@H](CC[C@@H]3[C@@H]2CC[C@]2(C)[C@@H](C(C)=O)CC[C@@H]32)C1` [3β-methoxy-5α-pregnane-20-one] reads “+++”; that for `CC(=O)[C@H]1[C@H](C)C[C@H]2[C@@H]3CC=C4C[C@@H](O)CC[C@]4(C)[C@H]3CC[C@@]21C` [PREG-16α-methyl], “++ (equal to)”; that for `CC(=O)[C@@]12C[C@@H]1C[C@H]1[C@@H]3CC=C4C[C@@H](O)CC[C@]4(C)[C@H]3CC[C@@]12C` [PREG-16α,17α-methylene], “+ (lower than)”.
For `CO[C@H]1CC[C@@]2(C)C(CCC3C2CC[C@@]2(C)C3CC[C@@H]2[C@@H](C)O)C1` (stereo partly drawn) [3β-methoxy-5α-pregnane-20β-ol], in the data set with PC12 cells, the Neuritic sprouting result was “++ (equal to)”.
With `CC#C[C@]1(O)CC[C@H]2[C@@H]3CCC4=CC(=O)CCC4=C3[C@@H](c3ccc(N(C)C)cc3)C[C@@]21C` [RU486], the “progesterone receptor antagonist activity” value in data set [1] was “very high antagonist activity”.
For the compound `CNCCC(Oc1ccc(C(F)(F)F)cc1)c1ccccc1` (centres unmarked) [fluoxetine], the “Acet-Tub (stable acetylated α-tubulin)” value in data set [2] is “tendency to increase”. Moreover, the Tyr/Glu-Tub ratio result in data set [2] (3 h) is “did not change”.
For the compound PREG-16α,17α-epoxy, in the data set on PC12 cells, the Neuritic sprouting result is “+ (lower than)”.
`CC(=O)[C@H]1CC[C@H]2[C@@H]3CCC4=CC(=O)CC[C@]4(C)[C@H]3CC[C@]12C` [progesterone, reference compound]: in data set [3], the microtubule polymerization result is “do not stimulate polymerization”. Further, the “progesterone receptor agonist activity (transactivation)” value in data set [4] was “permits a transactivation activity leading to the expression of luciferase”.
With `CC(=O)[C@H]1CC[C@H]2[C@@H]3CC=C4C[C@@H](O)CC[C@]4(C)[C@H]3CC[C@]12C` [PREG, pregnenolone], in data set [3], the microtubule polymerization entry is “activates microtubule polymerization”. In data set [3] (setting [6]), the “Lag time of microtubule polymerization” value is on record as “decreased”; the “polymerization rate and quantity of microtubules” value is given as “clearly increase”. In the data set with PC12 cells (3 days of culture, NGF), the “increase in the average length of the neurites” value is listed as 60%. In the data set on PC12 cells, the Neuritic sprouting entry is recorded as “++ (equal to)”. The cellular toxicity result in the data set with PC12 cell line is “do not demonstrate toxicity”. For the same compound, in data set [5], the “motor dysfunction (RotaRod)” value is given as “Only the 3-methoxy-PREG had a beneficial effect”. The “Acet-Tub (stable acetylated α-tubulin)” value in data set [2] is “significantly decreased”. In the data set with Sprague Dawley rats, the “rat climbing behavior in the FST” value was “not changed” and the “rat swimming in the FST” value was “significantly increased”.
Consider pregnenolone sulfate, for which, in data set [3], the microtubule polymerization entry is “do not stimulate polymerization”.
`CC(=O)O[C@H](C)[C@H]1CC[C@H]2[C@@H]3CC=C4C[C@@H](O)CC[C@]4(C)[C@H]3CC[C@]12C` [Pregna-5-ene-3β,20β-diol-20-acetate]: the Neuritic sprouting entry in the data set on PC12 cells is reported as “++ (equal to)”.
